PubChem BioAssay (NCI)
“And” between values parts separate entries of the source, which are not always exact repeats. Equal entries are not always repeated.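 Assay format: 96-well plates, 48-hour exposure. The concentration for 50% growth inhibition is given as GI50. TGI is the concentration that stops growth completely.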

Each compound was assayed on MDA-MB-468 breast (assay: NCI tumour cell line growth inhibition, 48 h).

Structure (SMILES)	GI50	TGI
ClCCn1c(CCl)nc2ccc(Cl)cc21	1.68 µM	3.42 µM
CN1CCN(CCc2cccc(C(=O)c3cnn(-c4ccc(F)cc4)c3N)c2)CC1	> 25 µM	> 25 µM
COC1(C(=O)N[C@@H](C)c2ccc(-n3cc(F)cn3)nc2)CCC(c2nc(C)cc(Nc3cc(C)[nH]n3)n2)CC1 (some centres undefined)	1.98 µM	6.96 µM
CCN1C(=O)N(CC)C2C1NN=c1s/c(=C\c3cccnc3)c(=O)n12 (centres undefined)	0.363 µM	> 100 µM
COC(=O)[C@@H](C)C[C@H](Cc1ccccc1)NC(=O)c1nc([C@@H](C[C@H](C(C)C)N(C)C(=O)[C@@H](NC(=O)[C@H]2CCCCN2C)C(C)C)OC(C)=O)sc1C	< 0.00167 µM	> 16.7 µM
CC(C)(C)C[C@H]1NC(C(=O)NCC[C@H](O)CO)[C@H](c2cccc(Cl)c2)[C@@]12C(=O)Nc1cc(Cl)c(F)cc12 (some centres undefined)	12.4 µM	27.3 µM
CCN(Cc1ccc(F)c(F)c1)c1ccc(CO)c(Cl)c1	0.0162 µM	0.0438 µM
Cc1c(C(=O)/C=C/c2csc3ccccc23)[n+](=O)c2ccccc2n1[O-]	1.71 µM	3.6 µM
Cc1ccc(/C=C2\CN(C(=O)OC(C)(C)C)C/C(=C\c3ccc(C)cc3)C2=O)cc1	0.0878 µM	> 100 µM
Nc1c(C(=O)Nc2cccc([N+](=O)[O-])c2)sc2nc3c(cc12)C(O)CCC3 (centres undefined)	2.11 µM	> 100 µM
Cc1[c-]onc1C.Cc1[c-]onc1C.[Ag].[Ag].[NH-]S(=O)(=O)c1ccc(N=Nc2cc(N=Nc3ccc(S([NH-])(=O)=O)cc3)c3c(NC(=O)C(Cl)Cl)cccc3c2OC(=O)C(Cl)Cl)cc1	1.92 µM	8.48 µM
N#Cc1cnc2cc(OC[C@H](O)CO)c(NC(=O)CC3CSSC3)cc2c1Nc1ccc(OCc2cccc(F)c2)c(Cl)c1	0.118 µM	0.363 µM
COc1c(CCC[P+](c2ccccc2)(c2ccccc2)c2ccccc2)cc2c(c1OC)OCO2	0.256 µM	1.18 µM
COC(=O)[C@]12CC[C@@H](C)[C@H](C)[C@@H]1C1=CC[C@@H]3[C@@]4(C)C[C@@H](OC(C)=O)[C@H](O)[C@@](C)(COC(C)=O)[C@@H]4[C@H](O)C[C@@]3(C)[C@]1(C)CC2	2.33 µM	7.27 µM
C[C@@H](C(=O)Nc1ccc(Cl)cc1)C1CCC(c2ccnc3ccc(F)cc23)CC1 (some centres undefined)	2.7 µM	14.1 µM
C=C1C(=O)O[C@H]2[C@H]1CC/C(COC(=O)NCc1ccccc1OC)=C\CC[C@@]1(C)O[C@@H]21	0.669 µM	2.8 µM
COC(=O)[C@H](Cc1cn(C)cn1)NC(=O)[C@H](Cc1c[nH]c2ccccc12)NC(=O)Nc1cc(C(F)(F)F)cc(C(F)(F)F)c1	> 10 µM	> 10 µM
COc1cc(Cl)cc(-c2nn(C(=O)NCCN3CCOCC3)cc2-c2ccncc2)c1	2 µM	11.5 µM
COc1cccc(/C=C/C(=O)c2cccc(Nc3nc(Nc4ccccc4)nc(Nc4ccccc4)n3)c2)c1	2.5 µM	11.3 µM

Structure (SMILES)	GI50	TGI
CCN(CC)c1ccc(C(=C2C=CC(=[N+](CC)Cc3cccc(S(=O)(=O)O)c3)C=C2)c2ccc(N(CC)Cc3cccc(S(=O)(=O)O)c3)cc2)cc1	2.58 µM	15.9 µM
COC(=O)/C=C/C=C(c1ccccc1)c1ccccc1	3.47 µM	18.7 µM
CNC(=O)n1ccc2cc(Oc3ccnc(NC(=O)c4ccc(C5CCN(CCO)CC5)cc4)c3)c(OCCOC)cc21	1.99 µM	4.22 µM
CNC(=O)c1cncc(/C=C/c2ccccc2C)c1	> 25 µM	> 25 µM
O=C(CCCCCCNC(=O)C(O)(O)C(F)(F)F)Nc1ccc(-c2ccccc2)cc1	0.861 µM	3.1 µM
C[C@H](Nc1ncnc2nc[nH]c12)c1cc2cccc(Cl)c2c(=O)n1-c1ccccc1	1.55 µM	22.9 µM
COc1ccc(C(=O)/C=C/c2ccc(/C=C/c3cc(OC)c(OC)c(OC)c3)cc2)cc1	3.39 µM	48.7 µM
CCN(CC)S(=O)(=O)c1ccc(OC)c(Nc2ncc(-c3ccccc3)o2)c1	> 10.4 µM	> 25 µM
CC1SC(c2c(Cl)cccc2Cl)N(NC(=O)c2[nH]c3ccc(F)cc3c2-c2ccccc2)C1=O (centres undefined)	3.72 µM	29.9 µM
O=S(=O)(NC1CC2CCC1C2)c1ccc2c(c1)C(=NO)c1cc(S(=O)(=O)NC3CC4CCC3C4)ccc1-2 (centres undefined)	0.327 µM	1.09 µM
CC(C)NC[C@@H](C(=O)N1CCN(c2ncnc3c2[C@H](C)C[C@H]3O)CC1)c1ccc(Cl)cc1	0.112 µM and 0.134 µM	0.582 µM and 2.19 µM
CCCCCn1c(=N)n(CC(O)COc2cccc(C)c2)c2ccccc21 (centres undefined)	2.38 µM	5.29 µM
COc1ccc2c(c1)O/C(=C\c1cccc(OCC(=O)Nc3nc4c(s3)CCCC4)c1)C2=O	1.71 µM	48.4 µM
O=C1OC(=O)C(c2c[nH]c3ccccc23)=C1c1c[nH]c2ccccc12	> 19.3 µM	> 25 µM
O=CNc1c(Cl)cc2c(c1Cl)Cc1cc([N+](=O)[O-])ccc1-2	0.317 µM	1.27 µM
COc1cc(C2c3cc4c(cc3OC(N3CCCC3)C2C)OCO4)cc(OC)c1OC (centres undefined)	0.416 µM	54.8 µM
Cc1ccc2c(ccc3c[n+]4c5ccccc5ccc4n32)c1	0.541 µM	2.47 µM
C=CCc1c2c(c(OC)c3ccoc13)C(=O)/C(=C/c1ccccc1OC)O2	2.46 µM	7.85 µM
